Results on three molecules are retold here after publication PMC11761228, “Cinnamic Acid Compounds (p-Coumaric, Ferulic, and p-Methoxycinnamic Acid) as Effective Antibacterial Agents Against Colistin-Resistant Acinetobacter baumannii” (Antibiotics, 2025).

Entries after “also recorded” stand apart in the source; their conditions may differ.

For one data set, the system named is COLR-Ab isolates. Nature of the data set: Checkerboard synergy test with COL. The class given is cell-based, Acinetobacter baumannii. How it is done: The checkerboard synergy test, based on microdilution, was carried out to investigate the combined activity of antibiotic and cinnamic acid derivatives. The effectiveness of the two antimicrobial drugs in combination was evaluated using a 96-well microplate for each strain. The medium employed was CAMHB. […] COL was added vertically, and cinnamic acids was added horizontally to the wells. The bacterial suspension was prepared to 0.5 McFarland standard density, and the final bacterial concentration was adjusted to 5 × 10^5 CFU/mL. In total, 10 µL of bacterial inoculum was added to each well. Bacterial growth control (CAMHB + bacteria) and medium sterility control (CAMHB) were also examined for each plate. The plates were incubated at 35 ± 2 °C for 18–24 h. Each experiment was conducted in triplicate.
The fractional inhibition concentrations (FIC) of all antimicrobial agents were calculated for the evaluation of the results in accordance with the following formulae:FICA = (MIC of A in combination/MIC of A alone)FICB = (MIC of B in combination/MIC of B alone)FICindex(FICI) = FICA + FICB
FICI ≤ 0.5 was considered to indicate synergism, […] ≤ 4 was considered to indicate indifference, and FICI > 4 was considered to indicate antagonism. In the formulae, the letter “A” is used to represent COL, while “B” is used to represent one of the compounds, p-CA, FA, and p-MCA.

Data set [1] deals with biofilm formation of COLR-Ab isolates. Nature of the data set: Antibiofilm activity, microtiter plate-based crystal violet technique. The class given is cell-based, Acinetobacter baumannii. Particulars: for Reduction of biofilm formation: dose range 512–32 μg/mL. How it is done:
Following the incubation period, the microtiter plates were gently washed three times with PBS. Subsequently, 200 µL of methanol (99%) was added to each well and left for 15 min. The methanol was then removed from the wells and the plate was left to dry for approximately 30 min, thus completing the fixation process. Then, 200 µL of 0.1% CV solution was added to each well and incubated for 20 min at room temperature. The plates were washed three times with PBS in order to remove the excess stain, and then 150 μL of 95% ethanol was added to the wells and incubated for 20 min. The optical density of the CV-stained biofilm was measured at a wavelength of 575 nm using a Thermo Labsystem Multiscan Spectrum microtiter plate reader (Thermolabsystem, Chantilly, VA, USA). Each experiment was conducted in triplicate.
In order to evaluate the antibiofilm activity of COL, p-CA, FA, and p-MCA, a 96-well microtiter plate-based CV test was carried out, with minor modifications to the methods previously described by Kırmusaoglu (2019) and Haney et al. (2021). Briefly, bacteria were inoculated into MHB medium containing 0.2% glucose and incubated at 37 °C for 16–20 h. The bacterial suspension, adjusted to 0.5 McFarland using the same medium, was prepared to a final concentration of 5 × 10^5 CFU/mL and inoculated into 96-well flat-bottom microtitre plates. […] Wells containing only medium were used as negative controls (MHB), and wells containing only medium and bacteria were used as growth controls. The plates were then incubated overnight at 35 ± 2 °C in a normal atmosphere. Following incubation, CV staining procedures were carried out in a similar manner to Section 4.4.
The antibiofilm index was calculated using the following formula:% Biofilm Mass = (100 × Sample OD575/Growth Control OD575)

The subject of the next data set is COLR-Ab4 isolate. Nature of the data set: Cytoplasmic membrane permeability assay (A260 of supernatant). In kind it is cell-based, Acinetobacter baumannii. Particulars: 3 h. How it is done: A cell membrane permeability assay was carried out in accordance with the methods described by Köse (2023). […] The bacteria were firstly incubated in MHB at 35 ± 2 °C overnight. Subsequently, the bacterial culture was centrifuged at 4000× g at 15 min, after which the pellet was washed twice with PBS. […] A suspension containing PBS and bacteria was used as a control. All samples were incubated at 35 ± 2 °C for 3 h, centrifuged at 13,400× g for 15 min, and the supernatant was harvested. The absorbance (A)260 of the supernatant was quantified using a UV-Vis spectrophotometer (Agilent Technologies, Santa Clara, CA, USA) to determine the amount of nucleic acid released from the cytoplasm. Each experiment was repeated three times.

The test system of a further data set is Vero cells. Nature of the data set: CCK-8 cell viability assay. In kind it is cell-based, African green monkey. Conditions: 24 h; for Cytotoxicity (doses with cytotoxic effects): 0.78125–200 μg/mL. The method, then: 293T [HEK-293] (ATCC® CRL-1573), HUVEC (ATCC CRL-1730 ™, human umbilical vein endothelial cells) and Vero (ATCC® CCL-81™, African green monkey kidney epithelial cells) cells were used in this study. Cells were cultured in RPMI-1640 medium supplemented with 10% fetal bovine serum, 0.1 mM non-essential amino acids, […], 2 mM L-glutamine, and 10 μg/mL gentamicin in a humidified atmosphere of 5% CO2, 95% air at 37 °C. After growing to approximately 80% confluence, the cells were detached with 0.25% (w/v) trypsin-EDTA and then subcultured. The cells were stored in a deep freezer at −80 °C in a solution prepared with 95% medium and 5% DMSO.
Cell viability was assessed according to the manufacturer’s protocol using a Cell Counting Kit-8 (CCK-8) (KTA1020, Abbkine, Atlanta, GA, USA). The assay is based on the reduction of 2-(2-methoxy-4-nitrophenyl)-3-(4-nitrophenyl)-5-(2,4-disulfophenyl)-2H-tetrazolium monosodium salt (WST-8) by cellular mitochondrial dehydrogenase. Cells were seeded in 96-well plates at a final concentration of 5 × 10^3 cells/well in 100 μL complete culture medium and were allowed to attach for 24 h. […] Immediately after the treatment, cell viability in a single column was determined and recorded as time zero (T0). The plain medium with 1% FBS was used as a negative control, whereas ethanol was used as solvent control. Each treatment was performed in four well replicates. At the end of the incubation, the medium was gently aspirated to terminate the experiment, a total volume of 10 μL (5 mg/mL) of CCK-8 solution was added to each well and further incubated under the same conditions for 4 h. The absorbances at 450 nm were measured in a microplate reader (Thermo Labsystem, Waltham, MA, USA), using wells without cells as background. The sample readings were calculated by subtracting the average of background absorbances. The half-maximal inhibitory concentration (IC50) of each extract was derived by a nonlinear regression model (curve-fit) based on a sigmoidal dose response curve (variable slope) and was computed using Graph-Pad Prism, version 4.00 (Graph-Pad Software, San Diego, CA, USA). Cell viability was calculated using the following formula: Cell viability (%) = (ODtreatment − ODblank)/(ODcontrol − ODblank) × 100% [78].
In general terms: Tetrazolium assays rely on reduction of a dye to a coloured formazan, in cell work by metabolically active cells.

With `COc1cc(/C=C/C(=O)O)ccc1O` [FA, ferulic acid], the “Interpretation of FICI for COL combined with the compound” value (“Interpretation of FICI for COL combined” for short) with COLR-Ab isolates (COLR-Ab1) is “S (synergistic effect)”; in the data set on COLR-Ab isolates (COLR-Ab2), “S (synergistic effect)”; in the data set with COLR-Ab isolates (COLR-Ab3) it was “S (synergistic effect)”; in the data set on COLR-Ab isolates (COLR-Ab4), “I (indifferent effect)”; with COLR-Ab isolates (COLR-Ab5), “S (synergistic effect)”. The “Mean FICI for COL combined with the compound” value (“Mean FICI for COL combined” below) is listed as 0.15 with COLR-Ab isolates (COLR-Ab1); 0.15 with COLR-Ab isolates (COLR-Ab2); 0.15 in the data set with COLR-Ab isolates (COLR-Ab3); 0.51 in the data set with COLR-Ab isolates (COLR-Ab4); 0.12 in the data set on COLR-Ab isolates (COLR-Ab5). Also, the “Inhibition of biofilm formation” value in data set [1] (dose range 2048–128 μg/mL, COLR-Ab1, 3, 4, 5) is 28.1–77%. Moreover, the “Increase in absorbance values at 260 nm vs control” value (from here on “Increase in absorbance values”) in the data set on COLR-Ab4 isolate (COLR-Ab4, MIC concentration) was 1.66 fold; with COLR-Ab4 isolate (COLR-Ab4, MIC/2 concentration) it was 1.52 fold; in the data set on COLR-Ab4 isolate (COLR-Ab4, MIC/4 concentration), 1.14 fold. For the same molecule, the “Cytotoxicity (doses with cytotoxic effects)” value (“Cytotoxicity” below) in the data set with Vero cells is given as “no cytotoxic effects; also recorded: did not exhibit any cytotoxic effect”.

Regarding `COc1ccc(C=CC(=O)O)cc1` [p-MCA, p-methoxycinnamic acid], the “Interpretation of FICI for COL combined” value in the data set with COLR-Ab isolates (COLR-Ab1), with COLR-Ab isolates (COLR-Ab2), in the data set with COLR-Ab isolates (COLR-Ab3), in the data set on COLR-Ab isolates (COLR-Ab4) and in the data set on COLR-Ab isolates (COLR-Ab5) was “S (synergistic effect)” in each case. For the same molecule, the “Mean FICI for COL combined” value is reported as 0.09 in the data set on COLR-Ab isolates (COLR-Ab1); 0.09 in the data set on COLR-Ab isolates (COLR-Ab2); 0.27 in the data set with COLR-Ab isolates (COLR-Ab3); 0.14 in the data set with COLR-Ab isolates (COLR-Ab4); 0.27 in the data set with COLR-Ab isolates (COLR-Ab5). The “Reduction of biofilm formation” value in data set [1] (COLR-Ab1, 3, 4, 5) is 40.3–77.2%. The “Increase in absorbance values” value is 1.34 fold in the data set on COLR-Ab4 isolate (COLR-Ab4, MIC concentration); 1.15 fold with COLR-Ab4 isolate (COLR-Ab4, MIC/2 concentration); “no statistically significant differences” in the data set with COLR-Ab4 isolate (COLR-Ab4, MIC/4 concentration). Further, in the data set on Vero cells, the “Cytotoxicity” value is reported as “only 200 μg/mL p-MCA induced cytotoxicity; also recorded: only at 200 μg/mL (p < 0.05)”.

Take `O=C(O)/C=C/c1ccc(O)cc1` [p-CA, p-coumaric acid]: the “Interpretation of FICI for COL combined” value with COLR-Ab isolates (COLR-Ab1), in the data set with COLR-Ab isolates (COLR-Ab2), in the data set with COLR-Ab isolates (COLR-Ab3), in the data set with COLR-Ab isolates (COLR-Ab4) and in the data set with COLR-Ab isolates (COLR-Ab5) was “S (synergistic effect)” each time. For the same molecule, the “Mean FICI for COL combined” value in the data set with COLR-Ab isolates (COLR-Ab1) stood at 0.16; in the data set on COLR-Ab isolates (COLR-Ab2), 0.19; with COLR-Ab isolates (COLR-Ab3), 0.16; in the data set on COLR-Ab isolates (COLR-Ab4), 0.15; in the data set on COLR-Ab isolates (COLR-Ab5), 0.28. Besides, the “Increase in biofilm formation” value in data set [1] (COLR-Ab3, doses of 16–8 μg/mL) is 20%. In addition, the “Reduction of biofilm formation” value in data set [1] (COLR-Ab1, 3, 4, 5) is given as 37.3–77.5%. Besides, the “Increase in absorbance values” value is 1.9 fold with COLR-Ab4 isolate (COLR-Ab4, MIC concentration); 1.71 fold in the data set with COLR-Ab4 isolate (COLR-Ab4, MIC/2 concentration); 1.19 fold with COLR-Ab4 isolate (COLR-Ab4, MIC/4 concentration). The “Cytotoxicity” value in the data set with Vero cells is “no cytotoxic effects; also recorded: did not exhibit cytotoxic effects”. Further, the IC50 value entry with Vero cells (tested range 0.78–200 μg/mL) is “indeterminate”.
